The target of assay [1] is T1, Adenosine receptor A3 (Homo sapiens, UniProt P0DMS8).
T1 sequence (P0DMS8 whole entry): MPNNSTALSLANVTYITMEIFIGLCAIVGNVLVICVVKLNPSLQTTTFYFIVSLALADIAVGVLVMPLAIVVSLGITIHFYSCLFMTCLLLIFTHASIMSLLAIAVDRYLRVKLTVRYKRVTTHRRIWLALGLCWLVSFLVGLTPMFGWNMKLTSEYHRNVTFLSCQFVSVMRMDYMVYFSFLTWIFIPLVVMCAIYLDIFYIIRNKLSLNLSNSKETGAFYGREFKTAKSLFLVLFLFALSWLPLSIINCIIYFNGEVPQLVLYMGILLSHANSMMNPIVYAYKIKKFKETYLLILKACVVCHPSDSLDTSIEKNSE

Assay [2] has as its target T2, B2 bradykinin receptor (Homo sapiens, UniProt P30411).
T2 sequence (P30411 whole entry): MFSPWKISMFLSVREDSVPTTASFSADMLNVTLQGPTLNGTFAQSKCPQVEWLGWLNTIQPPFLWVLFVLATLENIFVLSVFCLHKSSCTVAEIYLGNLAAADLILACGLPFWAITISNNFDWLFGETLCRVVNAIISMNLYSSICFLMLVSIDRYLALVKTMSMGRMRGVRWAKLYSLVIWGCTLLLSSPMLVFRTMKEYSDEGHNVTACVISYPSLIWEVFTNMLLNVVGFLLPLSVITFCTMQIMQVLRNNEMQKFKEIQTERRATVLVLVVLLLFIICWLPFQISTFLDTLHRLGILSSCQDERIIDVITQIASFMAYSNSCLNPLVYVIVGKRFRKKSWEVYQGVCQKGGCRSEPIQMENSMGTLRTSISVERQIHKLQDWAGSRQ

Assay [3] has as its target T3, Glucocorticoid receptor (Homo sapiens, UniProt P04150).
T3 sequence (P04150 whole entry): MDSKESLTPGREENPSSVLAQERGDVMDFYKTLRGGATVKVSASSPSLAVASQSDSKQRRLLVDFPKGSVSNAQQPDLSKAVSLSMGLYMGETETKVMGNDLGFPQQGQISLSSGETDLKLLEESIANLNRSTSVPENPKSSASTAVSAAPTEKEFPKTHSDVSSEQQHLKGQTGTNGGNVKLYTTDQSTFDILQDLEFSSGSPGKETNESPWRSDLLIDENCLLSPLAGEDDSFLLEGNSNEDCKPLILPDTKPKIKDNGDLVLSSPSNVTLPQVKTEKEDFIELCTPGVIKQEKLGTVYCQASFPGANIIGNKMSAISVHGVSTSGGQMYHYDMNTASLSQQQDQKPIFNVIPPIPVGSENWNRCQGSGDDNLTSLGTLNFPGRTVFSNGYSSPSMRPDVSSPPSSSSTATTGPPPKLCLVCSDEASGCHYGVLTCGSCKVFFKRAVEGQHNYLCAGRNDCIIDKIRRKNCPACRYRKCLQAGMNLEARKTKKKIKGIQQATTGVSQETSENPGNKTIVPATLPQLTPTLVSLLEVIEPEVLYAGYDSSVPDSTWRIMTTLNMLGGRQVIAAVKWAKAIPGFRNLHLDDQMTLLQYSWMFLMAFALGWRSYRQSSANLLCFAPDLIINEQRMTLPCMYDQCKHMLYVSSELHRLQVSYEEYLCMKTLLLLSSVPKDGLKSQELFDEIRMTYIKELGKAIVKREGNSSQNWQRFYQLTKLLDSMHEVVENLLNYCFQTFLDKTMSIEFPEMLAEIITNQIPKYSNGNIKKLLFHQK

Assay [4] concerns the target T4, Muscarinic acetylcholine receptor M2 (Homo sapiens, UniProt P08172).
T4 sequence (P08172 whole entry): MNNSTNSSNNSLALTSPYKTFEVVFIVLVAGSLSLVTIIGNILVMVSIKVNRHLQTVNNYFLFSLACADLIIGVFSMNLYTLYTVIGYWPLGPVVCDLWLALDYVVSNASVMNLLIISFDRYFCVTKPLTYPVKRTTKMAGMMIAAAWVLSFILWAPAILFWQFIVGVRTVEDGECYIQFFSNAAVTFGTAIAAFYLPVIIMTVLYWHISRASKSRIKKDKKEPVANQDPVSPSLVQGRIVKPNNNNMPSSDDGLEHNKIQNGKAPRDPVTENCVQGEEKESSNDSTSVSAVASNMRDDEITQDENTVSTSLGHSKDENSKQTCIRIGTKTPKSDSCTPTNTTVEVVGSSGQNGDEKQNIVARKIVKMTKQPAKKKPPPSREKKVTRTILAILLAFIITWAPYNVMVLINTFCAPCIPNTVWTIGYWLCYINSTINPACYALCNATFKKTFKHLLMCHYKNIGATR
The format is functional, cell-based.

Assay [5] concerns the target T5, Amine oxidase [flavin-containing] A (Homo sapiens, UniProt P21397).
T5 sequence (P21397 whole entry): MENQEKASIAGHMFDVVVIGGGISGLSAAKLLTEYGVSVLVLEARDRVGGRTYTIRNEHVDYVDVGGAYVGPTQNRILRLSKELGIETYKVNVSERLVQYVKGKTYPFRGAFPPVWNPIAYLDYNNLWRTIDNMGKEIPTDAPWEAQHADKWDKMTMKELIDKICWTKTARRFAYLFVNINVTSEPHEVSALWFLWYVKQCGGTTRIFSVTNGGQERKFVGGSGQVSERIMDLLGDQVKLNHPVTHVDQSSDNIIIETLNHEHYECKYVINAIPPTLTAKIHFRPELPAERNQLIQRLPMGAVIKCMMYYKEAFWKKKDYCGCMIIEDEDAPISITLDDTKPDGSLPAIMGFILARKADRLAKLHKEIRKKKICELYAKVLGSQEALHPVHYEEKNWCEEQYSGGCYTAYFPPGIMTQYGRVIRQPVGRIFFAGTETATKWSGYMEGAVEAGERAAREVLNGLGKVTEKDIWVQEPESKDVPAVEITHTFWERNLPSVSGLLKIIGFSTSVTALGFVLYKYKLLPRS
The format is functional.

Assay [6] deals with T6, 5-hydroxytryptamine receptor 2B (Homo sapiens, UniProt P41595). The format is functional, cell-based.
T6 sequence (P41595 whole entry): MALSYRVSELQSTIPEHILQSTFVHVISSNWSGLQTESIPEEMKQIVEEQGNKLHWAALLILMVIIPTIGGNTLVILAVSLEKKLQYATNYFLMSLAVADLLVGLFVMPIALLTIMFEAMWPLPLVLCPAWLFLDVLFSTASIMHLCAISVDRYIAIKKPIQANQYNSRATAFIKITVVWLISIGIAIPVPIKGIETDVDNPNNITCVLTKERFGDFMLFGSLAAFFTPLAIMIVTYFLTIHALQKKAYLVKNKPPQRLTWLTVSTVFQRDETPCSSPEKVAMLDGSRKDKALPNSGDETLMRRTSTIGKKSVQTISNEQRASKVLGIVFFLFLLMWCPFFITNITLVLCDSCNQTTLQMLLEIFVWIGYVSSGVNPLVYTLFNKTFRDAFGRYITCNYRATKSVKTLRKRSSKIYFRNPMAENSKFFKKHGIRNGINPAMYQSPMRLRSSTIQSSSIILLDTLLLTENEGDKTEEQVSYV
For assay [7], the target named is Sodium-dependent dopamine transporter (Homo sapiens, UniProt Q01959).
Chain of Sodium-dependent dopamine transporter (Q01959 whole entry): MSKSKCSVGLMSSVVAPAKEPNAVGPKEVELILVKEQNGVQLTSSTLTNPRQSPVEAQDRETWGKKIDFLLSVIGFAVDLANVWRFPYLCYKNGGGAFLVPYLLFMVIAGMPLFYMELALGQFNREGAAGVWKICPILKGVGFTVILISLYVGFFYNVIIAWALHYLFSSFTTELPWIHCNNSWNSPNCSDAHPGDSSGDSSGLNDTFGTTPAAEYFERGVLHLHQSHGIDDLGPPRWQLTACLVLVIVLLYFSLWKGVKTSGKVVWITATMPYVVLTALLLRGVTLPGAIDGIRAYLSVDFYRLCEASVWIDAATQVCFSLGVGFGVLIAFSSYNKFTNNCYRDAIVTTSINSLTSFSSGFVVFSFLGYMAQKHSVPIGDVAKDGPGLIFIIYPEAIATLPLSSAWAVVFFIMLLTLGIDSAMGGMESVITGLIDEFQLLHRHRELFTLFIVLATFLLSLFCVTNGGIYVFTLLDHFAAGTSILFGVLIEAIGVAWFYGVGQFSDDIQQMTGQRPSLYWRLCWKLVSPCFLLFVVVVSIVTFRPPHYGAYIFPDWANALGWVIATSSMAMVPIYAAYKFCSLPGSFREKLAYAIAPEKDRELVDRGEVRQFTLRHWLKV
For assay [8], the target named is T6, 5-hydroxytryptamine receptor 2B. The class given is functional, cell-based. The source holds these as a separate data set.
For assay [9], the target named is D(1A) dopamine receptor (Homo sapiens, UniProt P21728). The format is functional, cell-based.
Chain of D(1A) dopamine receptor (P21728 whole entry): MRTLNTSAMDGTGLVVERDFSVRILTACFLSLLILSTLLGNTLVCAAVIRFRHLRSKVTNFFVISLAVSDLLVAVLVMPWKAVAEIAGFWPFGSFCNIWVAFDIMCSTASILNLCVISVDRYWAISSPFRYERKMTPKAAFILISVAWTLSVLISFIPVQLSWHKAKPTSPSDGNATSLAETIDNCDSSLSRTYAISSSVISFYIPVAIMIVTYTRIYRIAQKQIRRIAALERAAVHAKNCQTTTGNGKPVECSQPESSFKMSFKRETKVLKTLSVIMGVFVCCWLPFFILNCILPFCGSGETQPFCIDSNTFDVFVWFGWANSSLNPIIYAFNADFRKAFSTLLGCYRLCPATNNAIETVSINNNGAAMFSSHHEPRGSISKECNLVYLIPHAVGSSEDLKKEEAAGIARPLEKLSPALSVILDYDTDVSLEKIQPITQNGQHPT
Assay [10] has as its target T7, Cannabinoid receptor 1 (Homo sapiens, UniProt P21554). The class given is functional, cell-based.
The target in assay [11] is T7, Cannabinoid receptor 1. The class given is functional, cell-based. The source holds these as a separate data set.

For orientation: AC50 means the concentration giving half of the maximal activity seen. Low values mean greater potency, high ones weaker potency.

Each structure is given as a SMILES string. Where “and” joins values, the source holds several entries; their conditions need not be identical. Equal entries are not always repeated. Where only a bound is given, the exact number is not on record here.
Further: assay procedure not described here.

T7 sequence (P21554 whole entry): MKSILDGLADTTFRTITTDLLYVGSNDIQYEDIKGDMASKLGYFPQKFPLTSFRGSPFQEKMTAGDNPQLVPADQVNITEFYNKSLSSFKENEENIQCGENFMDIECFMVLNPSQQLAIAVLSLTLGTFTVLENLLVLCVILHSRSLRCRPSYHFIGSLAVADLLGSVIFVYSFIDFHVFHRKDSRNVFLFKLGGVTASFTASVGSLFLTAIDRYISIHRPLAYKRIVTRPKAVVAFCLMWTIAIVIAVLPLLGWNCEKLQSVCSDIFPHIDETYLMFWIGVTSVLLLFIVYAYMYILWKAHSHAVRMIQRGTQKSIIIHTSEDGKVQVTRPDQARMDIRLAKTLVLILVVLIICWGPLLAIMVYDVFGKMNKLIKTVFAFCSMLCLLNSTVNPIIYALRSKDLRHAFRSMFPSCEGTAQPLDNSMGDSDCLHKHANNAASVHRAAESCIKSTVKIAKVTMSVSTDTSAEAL

Regarding `COc1ccc(/C=C/C(=O)Nc2ccccc2C(=O)O)cc1OC`, the half-maximal activity concentration (AC50) in assay [1], in assay [2], in assay [3], in assay [4], in assay [5] and in assay [6] was greater than 30 µM in each case. Moreover, the AC50 in assay [7], in assay [8] and in assay [9] was greater than 30 µM throughout.
For `NCCCC(O)(P(=O)(O)O)P(=O)(O)O` [ALENDRONIC ACID], the AC50 in [1] was greater than 30 µM; in [2], greater than 30 µM; in assay [3], greater than 30 µM; in [5], greater than 10 µM.
With `CCCCCCNC(=O)n1cc(F)c(=O)[nH]c1=O` [CARMOFUR], the AC50 in [1], in assay [2], in [3], in [4], in [5] and in assay [6] was greater than 30 µM in each case. For the same molecule, the AC50 in assay [7], in assay [8] and in assay [9] was greater than 30 µM throughout.
Turning to `COc1cccc2c1C(=O)c1c(O)c3c(c(O)c1C2=O)C[C@@](O)(C(C)=O)C[C@@H]3O[C@H]1C[C@H](N)[C@H](O)[C@H](C)O1` [DAUNORUBICIN], the AC50 was 26.5 µM in [1]; greater than 10 µM in assay [2]; 0.11 µM in assay [3]; greater than 30 µM in assay [5]; 17.7 µM in assay [7]; greater than 30 µM in assay [9].
In the case of `COC(=O)N[C@@H](C)CNc1nccc(-c2cn(C(C)C)nc2-c2cc(Cl)cc(NS(C)(=O)=O)c2F)n1` [ENCORAFENIB], the AC50 in assay [1] is greater than 30 µM; in [2] it was greater than 30 µM; in assay [3], greater than 30 µM; in assay [4], greater than 30 µM; in assay [5], greater than 30 µM; in [6], 28 µM. The concentration at half-maximal activity (AC50) in assay [7], in [8] and in assay [9] was greater than 30 µM in each case.
Regarding `Nc1nc(F)nc2c1ncn2[C@@H]1O[C@H](COP(=O)(O)O)[C@@H](O)[C@@H]1O` [FLUDARABINE PHOSPHATE], the AC50 in [1], in assay [2], in [3], in assay [4], in assay [5] and in assay [6] was greater than 30 µM throughout. Besides, the AC50 in assay [7], in assay [8] and in assay [9] was greater than 30 µM throughout.
Turning to `CC#CCn1c(N2CCC[C@@H](N)C2)nc2c1c(=O)n(Cc1nc(C)c3ccccc3n1)c(=O)n2C` [LINAGLIPTIN], the half-maximal activity concentration (AC50) in assay [1] was 26.2 µM; in assay [2], greater than 30 µM; in [3] it was greater than 30 µM; in [5], greater than 10 µM; in [6] it was greater than 10 µM; in assay [7], greater than 30 µM. Further, the AC50 in [8] is greater than 10 µM.
With `CC(=O)O[C@H]1C[C@@H]2CC[C@@H]3[C@H](CC[C@@]4(C)[C@H]3C[C@H]([N+]3(C)CCCCC3)[C@@H]4OC(C)=O)[C@@]2(C)C[C@@H]1[N+]1(C)CCCCC1` [PANCURONIUM], the AC50 in [1], in assay [2], in [3], in [4], in assay [5] and in [6] was greater than 10 µM throughout. Further, the AC50 in assay [7], in assay [8] and in [9] was greater than 10 µM in each case.
`CC1(C)C(C=C(Cl)Cl)C1C(=O)OCc1cccc(Oc2ccccc2)c1` (stereo unspecified) [PERMETHRIN]: the half-maximal activity concentration (AC50) in [1] is greater than 10 µM; in assay [2], greater than 10 µM; in [3], greater than 30 µM; in assay [4] it was greater than 10 µM; in assay [5], greater than 10 µM; in assay [6] it was greater than 10 µM. For the same molecule, the half-maximal activity concentration (AC50) in assay [7], in assay [8] and in assay [9] was greater than 10 µM in each case.
Take `Cc1cc2nc3c(=O)[nH]c(=O)nc-3n(C[C@H](O)[C@H](O)[C@H](O)COP(=O)(O)O)c2cc1C` [RIBOFLAVIN 5'-PHOSPHATE]: the AC50 in assay [1] was greater than 30 µM; in assay [2], greater than 30 µM; in assay [3] it was 19 µM; in assay [5], greater than 30 µM; in assay [7], greater than 30 µM; in [9], greater than 30 µM.
Take `CC(NCCc1ccc(O)cc1)C(O)c1ccc(O)cc1` (stereo unspecified) [RITODRINE]: the AC50 in [1], in assay [2], in assay [3], in assay [4], in [5] and in assay [6] was greater than 30 µM each time. In addition, the AC50 in assay [7] was 19.5 µM and 12.3 µM; in assay [8] it was greater than 30 µM; in [9], greater than 10 µM.
Regarding `COc1c(O[C@@H]2O[C@H](CO)[C@@H](O)[C@H](O)[C@H]2O)cc2c(c1OC)-c1ccc(SC)c(=O)cc1[C@@H](NC(C)=O)CC2` [THIOCOLCHICOSIDE], the AC50 in assay [1], in [2], in assay [4], in [5], in assay [10] and in assay [11] was greater than 30 µM throughout. Also, the AC50 in assay [6], in assay [7], in assay [8] and in [9] was greater than 30 µM each time.
Consider `CN1[C@@H]2CC[C@H]1C[C@@H](OC(=O)c1c[nH]c3ccccc13)C2` [TROPISETRON], for which the half-maximal activity concentration (AC50) in [1], in assay [2], in assay [4], in assay [5], in assay [10] and in [11] was greater than 30 µM throughout. Further, the AC50 is 15 µM in [6], greater than 30 µM in assay [7], greater than 30 µM in assay [8] and greater than 30 µM in assay [9].
